The values that follow come from patent publication US20050222146A1, “N-substituted-n-sulfonylaminocyclopropane compounds and pharmaceutical use thereof” (priority 2003, published 2005).

For assay [1], the target named is T1, MMP-1 (Homo sapiens, UniProt P03956).
T1 sequence (P03956 100-469): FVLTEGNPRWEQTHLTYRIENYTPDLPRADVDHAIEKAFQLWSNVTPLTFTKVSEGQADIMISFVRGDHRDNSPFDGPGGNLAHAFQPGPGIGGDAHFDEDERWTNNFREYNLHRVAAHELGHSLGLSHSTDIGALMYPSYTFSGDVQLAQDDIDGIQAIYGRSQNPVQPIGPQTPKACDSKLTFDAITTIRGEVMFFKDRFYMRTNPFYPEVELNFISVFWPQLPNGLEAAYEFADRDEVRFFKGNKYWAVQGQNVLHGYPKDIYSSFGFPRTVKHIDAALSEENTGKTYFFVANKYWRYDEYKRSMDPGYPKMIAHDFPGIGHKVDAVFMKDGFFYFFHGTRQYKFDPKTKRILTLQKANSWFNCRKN
Briefly: MMP-1 inhibitory action, Type I collagen Activity Measurement kit (FITC-labeled collagen type I). The format is biochemical. As to conditions: 37° C. for 3 hr, read-out: Experimental Example 2 IC50 MMP1.

Assay [2] addresses T2, aggrecanase-1 (Homo sapiens, UniProt O75173).
T2 sequence (O75173 213-837): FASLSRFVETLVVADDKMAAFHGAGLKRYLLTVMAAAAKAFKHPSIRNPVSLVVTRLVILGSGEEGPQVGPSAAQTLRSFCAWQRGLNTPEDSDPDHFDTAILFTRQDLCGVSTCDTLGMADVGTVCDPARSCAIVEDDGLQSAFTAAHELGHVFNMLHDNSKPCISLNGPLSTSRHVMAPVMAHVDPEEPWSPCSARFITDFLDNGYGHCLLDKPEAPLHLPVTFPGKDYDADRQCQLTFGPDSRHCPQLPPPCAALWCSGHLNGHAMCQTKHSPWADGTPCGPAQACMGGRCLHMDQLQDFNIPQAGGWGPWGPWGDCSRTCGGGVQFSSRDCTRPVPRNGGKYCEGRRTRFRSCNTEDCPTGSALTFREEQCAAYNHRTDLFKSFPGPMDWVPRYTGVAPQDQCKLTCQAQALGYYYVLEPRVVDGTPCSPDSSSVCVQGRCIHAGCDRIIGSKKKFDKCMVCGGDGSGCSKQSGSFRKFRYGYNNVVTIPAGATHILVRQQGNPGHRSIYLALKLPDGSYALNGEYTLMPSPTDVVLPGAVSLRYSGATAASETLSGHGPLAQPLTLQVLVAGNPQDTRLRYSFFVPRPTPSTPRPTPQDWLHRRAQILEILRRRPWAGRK
In words: Aggrecanase-1 inhibitory action, Particle Assay (GAG release from aggrecan-containing polyacrylamide particles). The format is biochemical. Conditions: 37° C. for 15 hr, read-out: Experimental Example 1 IC50 AG1. In short, it runs like this:
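IC50 (μM) derived from % inhibition, referenced to enzyme-free and inhibitor-free wells, of GAG release read as 1,9-dimethylmethylene blue absorbance at 595 nm (chondroitin sulfate standard). Substrate: aggrecan-bearing polyacrylamide particles, exposed to enzyme plus compound in Tris-HCl for 15 hr at 37 °C.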

As to `O=C(O)c1cccn1CCN([C@]1(C(=O)O)C[C@H]1c1ccccc1)S(=O)(=O)c1ccc(-c2ccc(Cl)cc2)cc1` (relative stereo) [Example 1-69, 1-{2-[((1R*,2S*)-1-carboxy-2-phenyl-cyclopropyl)-(4′-chloro-biphenyl-4-sulfonyl)-amino]-ethyl}-1H-pyrrole-2-carboxylic acid], the IC50 in assay [1] is no less than 10 µM; in assay [2], less than 1 µM.
The corresponding values for `CC(C)(C)OC(=O)N1CCC([C@H]2C[C@]2(C(=O)O)N(Cc2cccc(C(=O)O)c2)S(=O)(=O)c2ccc(-c3ccc(Cl)cc3)cc2)CC1` (relative stereo) [Example 1-70, 4-{(1R*,2S*)-2-carboxy-2-[(3-carboxy-benzyl)-(4′-chloro-biphenyl-4-sulfonyl)-amino]-cyclopropyl}-piperidin-1-carboxylic acid tert-butyl ester] are no less than 10 µM and less than 1 µM.
The corresponding values for `O=C(O)[C@@]1(N(Cc2nsc(=O)[nH]2)S(=O)(=O)c2ccc(-c3ccc(Cl)cc3)cc2)C[C@H]1c1ccccc1` (relative stereo) [Example 1-71, (1R*,2S*)-1-[(4′-chloro-biphenyl-4-sulfonyl)-(5-oxo-4,5-dihydro-[1,2,4]thiadiazol-3-ylmethyl)-amino]-2-phenyl-cyclopropanecarboxylic acid] are no less than 10 µM and less than 1 µM.
In the same order, the values of `O=C(O)[C@@]1(N(Cc2noc(=O)[nH]2)S(=O)(=O)c2ccc(-c3ccc(Cl)cc3)cc2)C[C@H]1c1cccc(Oc2ccccc2)c1` (relative stereo) [Example 1-72, (1R*,2S*)-1-[(4′-chloro-biphenyl-4-sulfonyl)-(5-oxo-4,5-dihydro-[1,2,4]oxadiazol-3-ylmethyl)-amino]-2-(3-phenoxy-phenyl)-cyclopropanecarboxylic acid] are no less than 10 µM and less than 0.1 µM.
In the case of `O=C(O)c1ncccc1CN([C@]1(C(=O)O)C[C@H]1c1ccccc1)S(=O)(=O)c1ccc(-c2ccc(Cl)cc2)cc1` (relative stereo) [Example 1-73, 3-{[((1R*, 2S*)-1-carboxy-2-phenyl-cyclopropyl)-(4′-chloro-biphenyl-4-sulfonyl)-amino]-methyl}-pyridin-2-carboxylic acid], the IC50 was no less than 10 µM in assay [1] and less than 1 µM in assay [2].
The corresponding values for `O=C(O)[C@@]1(N(CCNc2nnn[nH]2)S(=O)(=O)c2ccc(-c3ccc(Cl)cc3)cc2)C[C@H]1c1ccccc1` (relative stereo) [Example 1-77, (1R*,2S*)-1-{(4′-chloro-biphenyl-4-sulfonyl)-[2-(1H-tetrazol-5-ylamino)-ethyl]-amino}-2-phenyl-cyclopropanecarboxylic acid] are no less than 10 µM and less than 1 µM.
The corresponding values for `O=C(O)c1nccn1CCN([C@]1(C(=O)O)C[C@H]1c1ccccc1)S(=O)(=O)c1ccc(-c2ccc(Cl)cc2)cc1` (relative stereo) [Example 1-78, 1-{2-[((1R*,2S*)-1-carboxy-2-phenyl-cyclopropyl)-(4′-chloro-biphenyl-4-sulfonyl)-amino]-ethyl}-1H-imidazole-2-carboxylic acid] are no less than 10 µM and less than 1 µM.
The corresponding values for `O=C(O)[C@@]1(N(CCNS(=O)(=O)C(F)(F)F)S(=O)(=O)c2ccc(-c3ccc(Cl)cc3)cc2)C[C@H]1c1cccc(Oc2ccccc2)c1` (relative stereo) [Example 1-81, (1R*,2S*)-1-[(4′-chloro-biphenyl-4-sulfonyl)-(2-trifluoromethanesulfonylamino-ethyl)-amino]-2-(3-phenoxy-phenyl)-cyclopropanecarboxylic acid] are no less than 10 µM and less than 1 µM.
For `CCN(CC)CCNc1cccc([C@@H]2C[C@@]2(C(=O)O)N(Cc2cccc(C(=O)O)c2)S(=O)(=O)c2ccc(-c3ccc(Cl)cc3)cc2)c1` (relative stereo) [Example 1-85, 3-{[{(1R*,2S*)-1-carboxy-2-[3-(2-diethylamino-ethylamino)-phenyl]-cyclopropyl}-(4′-chloro-biphenyl-4-sulfonyl)-amino]-methyl}-benzoic acid], the values for the concentration for half-maximal inhibition (IC50) in assay [1] and in assay [2] were no less than 10 µM and less than 1 µM, respectively.
The corresponding values for `O=C(O)c1cccc(CN([C@]2(C(=O)O)C[C@H]2c2cccc(Nc3ccccn3)c2)S(=O)(=O)c2ccc(-c3ccc(Cl)cc3)cc2)c1` (relative stereo) [Example 1-86, 3-{[{(1R*,2S*)-1-carboxy-2-[3-(pyridin-2-ylamino)-phenyl]-cyclopropyl}-(4′-chloro-biphenyl-4-sulfonyl)-amino]-methyl}benzoic acid] are no less than 10 µM and less than 0.1 µM.
The corresponding values for `O=C(O)c1cccc(CN([C@]2(C(=O)O)C[C@H]2c2cccc(OCCO)c2)S(=O)(=O)c2ccc(-c3ccc(Cl)cc3)cc2)c1` (relative stereo) [Example 1-88, 3-{[{(1R*,2S*)-1-carboxy-2-[3-(2-hydroxy-ethoxy)-phenyl]-cyclopropyl}-(4′-chloro-biphenyl-4-sulfonyl)-amino]-methyl}-benzoic acid] are no less than 10 µM and less than 0.1 µM.
In the same order, the values of `O=C(O)[C@@]1(N(CCNS(=O)(=O)C(F)(F)F)S(=O)(=O)c2ccc(-c3ccc(Cl)cc3)cc2)C[C@H]1c1cccc(NCCN2CCCCC2)c1` (relative stereo) [Example 1-89, (1R*,2S*)-1-[(4′-chloro-biphenyl-4-sulfonyl)-(2-trifluoromethanesulfonylamino-ethyl)-amino]-2-[3-(2-piperidin-1-yl-ethylamino)-phenyl]-cyclopropanecarboxylic acid] are no less than 10 µM and less than 1 µM.
Consider `O=C(O)[C@@]1(N(CCNS(=O)(=O)C(F)(F)F)S(=O)(=O)c2ccc(-c3ccc(Cl)cc3)cc2)C[C@H]1c1cccc(NS(=O)(=O)CCN2CCCCC2)c1` (relative stereo) [Example 1-90, (1R*,2S*)-1-[(4′-chloro-biphenyl-4-sulfonyl)-(2-trifluoromethanesulfonylamino-ethyl)-amino]-2-[3-(2-piperidin-1-yl-ethanesulfonylamino)-phenyl]-cyclopropanecarboxylic acid], for which the half-maximal inhibitory concentration (IC50) was no less than 10 µM in assay [1] and less than 1 µM in assay [2].
For `O=C(O)c1cccc(CN([C@]2(C(=O)O)C[C@H]2c2cccc(NCCN3CCCCC3)c2)S(=O)(=O)c2ccc(-c3ccc(Cl)cc3)cc2)c1` (relative stereo) [Example 1-91, 3-{[{(1R*,2S*)-1-carboxy-2-[3-(2-piperidin-1-yl-ethylamino)-phenyl]-cyclopropyl}-(4′-chloro-biphenyl-4-sulfonyl)-amino]-methyl}-benzoic acid], the values for the half-maximal inhibitory concentration (IC50) in assay [1] and in assay [2] were no less than 10 µM and less than 1 µM, respectively.
`O=C(O)CCCN([C@]1(C(=O)O)C[C@H]1c1ccccc1)S(=O)(=O)c1ccc(-c2ccc(Cl)cc2)cc1` (relative stereo) [Example 1-93, (1R*,2S*)-1-[(3-carboxy-propyl)-(4′-chloro-biphenyl-4-sulfonyl)-amino]-2-phenyl-cyclopropanecarboxylic acid]: the IC50 in assay [1] is no less than 10 µM; in assay [2] it was less than 1 µM.
In the same order, the values of `O=C(CO)NCCN([C@]1(C(=O)O)C[C@H]1c1ccccc1)S(=O)(=O)c1ccc(-c2ccc(Cl)cc2)cc1` (relative stereo) [Example 1-96, (1R*,2S*)-1-{(4′-chloro-biphenyl-4-sulfonyl)-[2-(2-hydroxy-acetylamino)-ethyl]-amino}-2-phenyl-cyclopropanecarboxylic acid] are no less than 10 µM and less than 1 µM.
